Measurements: ChEMBL document CHEMBL1139549, “Two prodrugs of potent and selective GluR5 kainate receptor antagonists actives in three animal models of pain” (J Med Chem, 2005)

Experiments:
[1] = target: Glutamate receptor ionotropic, kainate 2 (Homo sapiens, UniProt Q13002); assay: Inhibition of [3H]KA binding to iontropic glutamate receptor 6
[2] = Inhibition of [3H]KA binding to human iontropic glutamate receptors 5 and KA-2
[3] = Inhibition of [3H]KA binding to human iontropic glutamate receptors 6 and KA-2
[4] = Inhibition of [3H]KA binding to human iontropic glutamate receptors 5 and 6
[5] = target: Glutamate receptor ionotropic, kainate 1 (Homo sapiens, UniProt P39086)
Sequence of Glutamate receptor ionotropic, kainate 1 (P39086 whole entry): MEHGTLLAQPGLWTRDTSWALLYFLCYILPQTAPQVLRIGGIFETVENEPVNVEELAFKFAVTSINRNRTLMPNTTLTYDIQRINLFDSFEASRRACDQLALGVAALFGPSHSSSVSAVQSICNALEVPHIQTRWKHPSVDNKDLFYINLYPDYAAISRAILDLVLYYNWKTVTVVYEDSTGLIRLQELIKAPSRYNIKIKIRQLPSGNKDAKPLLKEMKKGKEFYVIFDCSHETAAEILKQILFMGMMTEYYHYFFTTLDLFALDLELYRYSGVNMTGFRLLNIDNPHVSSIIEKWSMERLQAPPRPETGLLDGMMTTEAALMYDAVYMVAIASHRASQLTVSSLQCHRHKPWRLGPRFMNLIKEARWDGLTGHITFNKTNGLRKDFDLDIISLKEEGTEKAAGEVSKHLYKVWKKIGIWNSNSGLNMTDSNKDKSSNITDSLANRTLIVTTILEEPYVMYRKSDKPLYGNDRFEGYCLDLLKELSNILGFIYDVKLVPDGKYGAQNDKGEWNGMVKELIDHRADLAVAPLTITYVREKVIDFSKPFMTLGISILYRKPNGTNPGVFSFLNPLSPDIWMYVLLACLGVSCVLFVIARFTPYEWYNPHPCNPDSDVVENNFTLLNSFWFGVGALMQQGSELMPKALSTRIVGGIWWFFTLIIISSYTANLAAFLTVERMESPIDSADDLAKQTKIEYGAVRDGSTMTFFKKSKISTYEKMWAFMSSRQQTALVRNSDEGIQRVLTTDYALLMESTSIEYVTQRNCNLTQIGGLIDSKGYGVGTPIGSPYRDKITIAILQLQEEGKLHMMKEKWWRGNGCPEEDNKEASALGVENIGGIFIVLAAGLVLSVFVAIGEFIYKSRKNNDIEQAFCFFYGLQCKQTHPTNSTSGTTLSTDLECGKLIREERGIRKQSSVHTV
Description: Inhibition of [3H]-KA binding to iontropic glutamate receptor 5

Glutamate receptor 2 = Glutamate receptor 2 (Homo sapiens, UniProt P42262); assay: biochemical
Sequence of Glutamate receptor 2 (P42262 whole entry): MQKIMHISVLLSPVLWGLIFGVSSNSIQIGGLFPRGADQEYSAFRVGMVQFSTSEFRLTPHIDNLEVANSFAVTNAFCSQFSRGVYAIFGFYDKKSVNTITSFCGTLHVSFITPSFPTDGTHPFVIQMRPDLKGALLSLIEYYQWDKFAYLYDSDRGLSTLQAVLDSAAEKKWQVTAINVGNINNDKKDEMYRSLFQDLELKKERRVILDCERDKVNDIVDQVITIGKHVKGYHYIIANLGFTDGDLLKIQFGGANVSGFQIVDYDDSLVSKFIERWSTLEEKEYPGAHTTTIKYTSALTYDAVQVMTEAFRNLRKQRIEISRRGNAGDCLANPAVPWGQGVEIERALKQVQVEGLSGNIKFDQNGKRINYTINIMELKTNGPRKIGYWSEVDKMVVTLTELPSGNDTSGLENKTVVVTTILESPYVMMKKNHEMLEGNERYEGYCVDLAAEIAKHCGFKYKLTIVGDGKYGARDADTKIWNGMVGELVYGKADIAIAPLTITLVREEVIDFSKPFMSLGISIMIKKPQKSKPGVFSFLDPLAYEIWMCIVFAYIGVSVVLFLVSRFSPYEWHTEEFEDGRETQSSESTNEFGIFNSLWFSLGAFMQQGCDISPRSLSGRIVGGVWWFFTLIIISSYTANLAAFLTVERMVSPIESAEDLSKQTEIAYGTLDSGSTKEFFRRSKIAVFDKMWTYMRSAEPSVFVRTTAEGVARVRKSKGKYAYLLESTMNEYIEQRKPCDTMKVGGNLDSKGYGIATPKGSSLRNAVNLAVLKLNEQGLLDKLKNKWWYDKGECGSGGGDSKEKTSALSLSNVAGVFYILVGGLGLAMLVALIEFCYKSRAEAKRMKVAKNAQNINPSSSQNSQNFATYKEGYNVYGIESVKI
Description: Inhibition of [3H]-AMPA binding to human GluR2 receptors expressed in HEK 293 cells

Sequence of Glutamate receptor ionotropic, kainate 2 (Q13002 whole entry): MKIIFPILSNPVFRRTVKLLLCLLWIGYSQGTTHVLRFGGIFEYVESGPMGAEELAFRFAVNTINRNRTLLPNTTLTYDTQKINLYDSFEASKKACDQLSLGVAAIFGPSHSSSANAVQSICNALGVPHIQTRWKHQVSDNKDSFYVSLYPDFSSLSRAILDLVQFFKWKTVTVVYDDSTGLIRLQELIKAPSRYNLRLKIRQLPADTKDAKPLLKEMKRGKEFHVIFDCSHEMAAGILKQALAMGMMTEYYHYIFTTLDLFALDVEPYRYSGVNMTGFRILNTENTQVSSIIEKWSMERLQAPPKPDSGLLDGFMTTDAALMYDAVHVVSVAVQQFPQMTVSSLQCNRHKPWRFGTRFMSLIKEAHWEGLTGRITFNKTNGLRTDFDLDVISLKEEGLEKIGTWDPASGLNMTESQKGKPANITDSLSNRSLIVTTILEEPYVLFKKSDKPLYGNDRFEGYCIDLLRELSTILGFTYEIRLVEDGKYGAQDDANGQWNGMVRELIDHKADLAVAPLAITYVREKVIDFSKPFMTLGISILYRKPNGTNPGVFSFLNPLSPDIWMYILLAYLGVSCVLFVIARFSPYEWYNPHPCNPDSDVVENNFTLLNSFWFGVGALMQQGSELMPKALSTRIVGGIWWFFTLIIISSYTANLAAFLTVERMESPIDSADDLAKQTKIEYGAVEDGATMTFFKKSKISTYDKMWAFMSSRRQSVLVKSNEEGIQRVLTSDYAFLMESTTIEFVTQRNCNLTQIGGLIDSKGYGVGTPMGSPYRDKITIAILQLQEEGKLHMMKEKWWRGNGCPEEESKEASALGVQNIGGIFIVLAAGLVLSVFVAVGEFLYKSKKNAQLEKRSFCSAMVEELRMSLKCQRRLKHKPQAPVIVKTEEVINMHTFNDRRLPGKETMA

Row | Structure (SMILES) | Ki [1] [µM] | Ki [2] [µM] | Ki [3] [µM] | Ki [4] [µM] | Ki [5] [µM] | Ki (Glutamate receptor 2) [µM]
1 | CCC(CC)COC(=O)[C@@H]1C[C@H]2C[C@@H](Nc3ccccc3-c3nn[nH]n3)CC[C@H]2CN1 | > 100 | > 100 | > 100 | 13.7 | 31.8 | > 100
2 | O=C(O)c1ccc(C[C@H]2CC[C@H]3CN[C@H](C(=O)O)C[C@H]3C2)cc1 | > 100 | > 100 | > 100 | 10.2 | – | > 100
3 | NS(=O)(=O)c1cccc2c1c([N+](=O)[O-])cc1nc(O)c(O)nc12 [NBQX] | – | 26.6 | 0.6 | 6.12 | – | –
4 | O=C(O)[C@@H]1C[C@H]2C[C@@H](CCc3nn[nH]n3)CC[C@H]2CN1 [TEZAMPANEL ANHYDROUS] | > 100 | 16.2 | > 100 | 2.1 | 4.16 | –

More lines, now with the values ahead:

Row | Ki [1] [µM] | Ki [2] [µM] | Ki [3] [µM] | Ki [4] [µM] | Ki [5] [µM] | Ki (Glutamate receptor 2) [µM] | Structure (SMILES)
5 | > 100 | 60.9 | > 100 | 5.98 | 7.37 | > 100 | CC(C)COC(=O)[C@@H]1C[C@H]2C[C@@H](Oc3ccccc3-c3nn[nH]n3)CC[C@H]2CN1
6 | > 100 | 7.89 | > 100 | 1 | 1.69 | 8.26 | O=C(O)[C@@H]1C[C@H]2C[C@@H](Oc3ccccc3-c3nn[nH]n3)CC[C@H]2CN1
7 | > 100 | 9.86 | > 100 | 1.37 | 1.55 | 5.51 | O=C(O)[C@@H]1C[C@H]2C[C@@H](Nc3ccccc3-c3nn[nH]n3)CC[C@H]2CN1
